Data set [1] addresses T1, brain AChE (Gallus gallus, UniProt P36196).
T1 sequence (P36196 20-767): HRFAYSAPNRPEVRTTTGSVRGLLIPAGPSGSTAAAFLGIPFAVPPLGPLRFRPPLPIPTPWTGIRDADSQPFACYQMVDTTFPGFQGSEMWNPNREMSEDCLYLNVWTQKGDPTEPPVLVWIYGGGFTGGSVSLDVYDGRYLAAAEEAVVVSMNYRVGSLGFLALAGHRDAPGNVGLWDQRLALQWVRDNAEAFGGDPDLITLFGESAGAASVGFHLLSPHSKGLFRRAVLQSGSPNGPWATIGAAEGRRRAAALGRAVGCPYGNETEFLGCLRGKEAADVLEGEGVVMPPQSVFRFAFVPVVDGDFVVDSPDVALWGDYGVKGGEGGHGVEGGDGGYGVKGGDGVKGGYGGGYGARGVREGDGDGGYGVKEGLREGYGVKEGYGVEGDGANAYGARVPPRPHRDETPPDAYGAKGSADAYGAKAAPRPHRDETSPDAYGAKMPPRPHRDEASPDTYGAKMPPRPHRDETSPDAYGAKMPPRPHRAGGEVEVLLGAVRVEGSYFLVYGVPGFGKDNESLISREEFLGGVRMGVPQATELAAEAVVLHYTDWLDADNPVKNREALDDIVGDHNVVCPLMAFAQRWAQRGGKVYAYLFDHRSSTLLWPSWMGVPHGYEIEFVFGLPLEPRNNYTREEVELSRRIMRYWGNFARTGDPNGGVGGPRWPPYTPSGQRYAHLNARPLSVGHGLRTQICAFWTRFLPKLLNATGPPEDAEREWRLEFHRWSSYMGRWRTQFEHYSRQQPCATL
The conditions noted are these: Gallus domesticus (hen) brain AChE.
Experimental: Whole brains were suspended in buffer (1 g of tissue plus 10 mL sodium phosphate 0.1 M, pH 7.5) and homogenized in an ice bath using an Ultra-Turrax homogenizer. The homogenate was then centrifuged (5,000g/30 min/5°C), and the soluble fraction was discarded. The pellet was then resuspended using the same volume of a 0.1 g% Triton X-100 in a 0.1 M sodium phosphate, pH 7.5, solution, and re-homogenized. After a second centrifugation (15,000g/90 min/5°C), the supernatant resulting from the pellet ressolubilization, or “solubilized AChE—AchEsol” [7], was collected, frozen, and stored at -20°C. All assays were conducted at most 72 hours after production of the supernatant fractions (AChEsol).
Brain AChE activity was assayed spectrophotometrically in 0.1 M sodium phosphate Triton X-100 0.1 g% pH 7.5 by a modification of Ellman’s method [18], as described by Silva Filho and colleagues [7]. The specificity of AChE for substrates (P%) was calculated by the ratio of AChE activity when using propionylthiocholine as substrate divided by AChE activity when using acetylthiocholine: P%, [(activity with ProScol/activity with AceScol) x 100] (%) [6].
Inhibition kinetic constants (IKC) were obtained using the methods described by Kemp and Wallace [9] and Carr and Chambers [19], and by the equations proposed by Kitz and Wilson [10] and Main [12]. […]

Data set [2] deals with brain AChE. The conditions noted are these: read-out: IC50-30min; Rattus (rat) brain AChE; cited from earlier work.
In data set [3] the test system is brain AChE. Conditions: read-out: IC50-30min; Gallus (chicken) brain AChE; cited from earlier work.
The subject of data set [4] is AChE. The conditions noted are these: read-out: IC50-30min; Genidens genidens, marine fish; cited from earlier work.
In data set [5] the test system is AChE. Conditions: read-out: IC50-30min; Percophis brasiliensis, marine fish; cited from earlier work.
Data set [6] relates to brain AChE. The data set is classed as biochemical, Mugil liza. The conditions noted are these: for inhibition of AChE: mullet AChE, 1-5 min incubation. On the procedure: (§1) The residual enzyme activities [Er] were evaluated.
Data set [7] concerns brain AChE. The data set is classed as biochemical, Lagocephalus laevigatus. As to the method: as §1
The subject of data set [8] is AChE. Conditions: read-out: IC50-30min; Piaractus mesopotamicus, freshwater fish; cited from earlier work.
The test system of data set [9] is brain AChE. Format: biochemical. The conditions noted are these: Genidens genidens (catfish) brain AChE. As to the method:
as §1

Data set [10] deals with AChE. The conditions noted are these: read-out: IC50-30min; Prochilodus lineatus, freshwater fish; cited from earlier work.

Like-named read-outs stand apart in the source and are kept apart here.

Consider `COP(=O)(OC)Oc1ccc([N+](=O)[O-])cc1` [methyl-paraoxon, dimethyl-4-nitrophenyl-phosphate], for which the “kp: phosphorylation rate constant” value on brain AChE [1] was 0.47 ± 0.1 min⁻¹; in the data set on brain AChE [6] (Mugil liza (mullet) brain AChE) it was 1.64 ± 0.6 min⁻¹; in the data set with brain AChE [7] (Lagocephalus laevigatus (puffer fish) brain AChE), 0.55 ± 0.08 min⁻¹; with brain AChE [9] it was 0.71 ± 0.1 min⁻¹. For the same molecule, the “ki: Bimolecular reaction constant” value worked out at 15010 ± 1090 M⁻¹ s⁻¹ at brain AChE [1] (pH 7.5, 0.1 g% Triton X-100); 179.5 ± 11.5 M⁻¹ s⁻¹ on brain AChE [6] (Mugil liza (mullet) brain AChE, pH 7.5, 0.1 g% Triton X-100); 155 ± 12.7 M⁻¹ s⁻¹ at brain AChE [7] (Lagocephalus laevigatus (puffer fish) brain AChE, pH 7.5, 0.1 g% Triton X-100); 588 ± 26.7 M⁻¹ s⁻¹ on brain AChE [9] (pH 7.5, 0.1 g% Triton X-100). Moreover, the IC50 is 29 nM in the data set on brain AChE [2]; 37 nM with brain AChE [3]; 455 nM in the data set on AChE [4]; 3340 nM in the data set on AChE [5]; 2880 ± 422 nM in the data set on brain AChE [6] (read-out: IC50: concentration that produced 50% inhibition of brain AChE activity in 30 min, Mugil liza (mullet), 30 min incubation, estimated using the ki); 2840 ± 145 nM in the data set on brain AChE [7] (read-out: IC50: concentration that produced 50% inhibition of brain AChE activity in 30 min, Lagocephalus laevigatus (puffer fish), 30 min incubation, estimated using the ki). Moreover, the IC50 with AChE [8] is 3110 nM; in the data set with AChE [10], 123 nM. For the same molecule, the Kd amounted to 159000 ± 59600 nM at brain AChE [6] (Mugil liza (mullet) brain AChE, read-out: Kd: dissociation constant of enzyme-inhibitor complex (EI)); 62600 ± 14700 nM at brain AChE [7] (Lagocephalus laevigatus (puffer fish) brain AChE, read-out: Kd: dissociation constant of enzyme-inhibitor complex (EI)); 20300 ± 2950 nM at brain AChE [9] (read-out: Kd: dissociation constant of enzyme-inhibitor complex (EI)). The “inhibition of AChE” value in the data set with brain AChE [6] (5μM of MP) is given as “less than 10%”; with brain AChE [6] (208μM of MP) it was “higher than 90%”.

(Values after publication PMC5031402 (PLoS ONE, 2016).)
